Data from article PMC7366380, “Discovery of a Potent and Selective Covalent Inhibitor and Activity-Based Probe for the Deubiquitylating Enzyme UCHL1, with Antifibrotic Activity” (Journal of the American Chemical Society, 2020).
Where “and” joins values, the source holds several entries; their conditions need not be identical. Identical values can stand only once. Values belong to the compound of their own block, whether it stands above or below them.

Assays:
[1] = molecular target: T1, DUBs and other proteins in HEK293 cells (Homo sapiens, UniProt P45974); experiment: Quantitative chemical proteomic profiling of ABP 2 in HEK293 cells: other DUBs and proteins across the proteome; conditions: USP5, listed as ABP 2
T1 sequence (P45974 1-858): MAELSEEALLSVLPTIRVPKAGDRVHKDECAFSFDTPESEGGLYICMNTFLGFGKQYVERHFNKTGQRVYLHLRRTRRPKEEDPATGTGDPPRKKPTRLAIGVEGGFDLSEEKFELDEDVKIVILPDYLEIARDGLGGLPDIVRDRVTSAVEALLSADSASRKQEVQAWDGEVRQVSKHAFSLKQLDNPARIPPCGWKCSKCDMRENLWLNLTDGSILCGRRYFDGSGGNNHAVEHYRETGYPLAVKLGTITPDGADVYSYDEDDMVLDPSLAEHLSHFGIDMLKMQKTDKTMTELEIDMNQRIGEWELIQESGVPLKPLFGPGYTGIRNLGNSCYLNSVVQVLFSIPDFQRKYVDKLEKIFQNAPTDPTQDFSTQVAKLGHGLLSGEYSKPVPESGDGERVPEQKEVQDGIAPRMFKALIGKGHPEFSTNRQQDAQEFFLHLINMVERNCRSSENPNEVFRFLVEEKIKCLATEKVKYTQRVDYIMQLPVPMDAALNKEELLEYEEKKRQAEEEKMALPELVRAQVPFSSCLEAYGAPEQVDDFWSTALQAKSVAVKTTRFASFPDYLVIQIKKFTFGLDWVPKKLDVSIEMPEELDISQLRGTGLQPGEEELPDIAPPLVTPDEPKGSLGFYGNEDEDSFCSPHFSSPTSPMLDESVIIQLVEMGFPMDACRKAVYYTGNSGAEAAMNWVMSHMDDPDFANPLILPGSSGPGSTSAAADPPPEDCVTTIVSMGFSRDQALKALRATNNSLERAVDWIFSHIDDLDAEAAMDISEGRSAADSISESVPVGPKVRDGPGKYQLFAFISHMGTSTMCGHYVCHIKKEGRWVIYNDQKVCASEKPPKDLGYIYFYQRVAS

[2] = molecular target: DUBs and other proteins in HEK293 cells (Homo sapiens, UniProt Q96FW1); experiment: as above; conditions: OTUB1, listed as ABP 2
DUBs and other proteins in HEK293 cells (Homo sapiens, UniProt Q96FW1), sequence (Q96FW1 whole entry): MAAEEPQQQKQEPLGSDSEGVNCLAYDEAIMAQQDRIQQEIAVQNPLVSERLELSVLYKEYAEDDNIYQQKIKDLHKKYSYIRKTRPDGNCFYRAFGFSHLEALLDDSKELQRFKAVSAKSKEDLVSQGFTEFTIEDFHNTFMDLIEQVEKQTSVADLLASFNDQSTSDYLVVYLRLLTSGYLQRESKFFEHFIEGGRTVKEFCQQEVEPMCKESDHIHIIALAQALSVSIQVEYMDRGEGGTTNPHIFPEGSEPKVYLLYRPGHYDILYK

[3] = molecular target: DUBs and other proteins in HEK293 cells (Homo sapiens, UniProt Q92905); experiment: as above; conditions: COPS5, listed as ABP 2
DUBs and other proteins in HEK293 cells (Homo sapiens, UniProt Q92905), sequence (Q92905 whole entry): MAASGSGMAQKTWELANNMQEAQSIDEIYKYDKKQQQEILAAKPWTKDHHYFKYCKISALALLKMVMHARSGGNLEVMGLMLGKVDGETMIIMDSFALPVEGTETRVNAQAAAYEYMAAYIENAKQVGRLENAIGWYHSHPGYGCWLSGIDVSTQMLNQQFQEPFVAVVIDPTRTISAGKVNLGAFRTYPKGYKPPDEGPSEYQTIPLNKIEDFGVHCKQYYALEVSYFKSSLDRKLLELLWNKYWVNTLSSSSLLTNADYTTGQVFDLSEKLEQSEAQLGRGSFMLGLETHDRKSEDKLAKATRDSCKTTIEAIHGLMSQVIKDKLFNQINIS

[4] = molecular target: DUBs and other proteins in HEK293 cells (Homo sapiens, UniProt Q6P2Q9); experiment: as above; conditions: PRPF8, listed as ABP 2
[5] = molecular target: DUBs and other proteins in HEK293 cells (Homo sapiens, UniProt P54578); experiment: as above; conditions: USP14, listed as ABP 2
DUBs and other proteins in HEK293 cells (Homo sapiens, UniProt P54578), sequence (P54578 whole entry): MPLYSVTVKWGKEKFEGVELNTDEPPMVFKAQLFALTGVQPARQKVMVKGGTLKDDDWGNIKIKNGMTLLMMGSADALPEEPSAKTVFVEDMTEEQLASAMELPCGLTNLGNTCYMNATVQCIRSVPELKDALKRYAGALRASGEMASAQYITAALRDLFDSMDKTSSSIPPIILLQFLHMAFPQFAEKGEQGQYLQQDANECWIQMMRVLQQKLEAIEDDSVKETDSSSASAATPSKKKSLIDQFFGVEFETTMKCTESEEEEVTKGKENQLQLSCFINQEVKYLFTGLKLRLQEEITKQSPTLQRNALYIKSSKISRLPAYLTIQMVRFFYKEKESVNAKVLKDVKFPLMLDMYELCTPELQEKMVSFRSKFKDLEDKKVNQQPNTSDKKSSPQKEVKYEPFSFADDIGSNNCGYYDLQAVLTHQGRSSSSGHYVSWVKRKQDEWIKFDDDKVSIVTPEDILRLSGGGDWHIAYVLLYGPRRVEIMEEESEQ

[6] = molecular target: T2, DUBs and other proteins in HEK293 cells (Homo sapiens, UniProt P51665); experiment: as above; conditions: PSMD7, listed as ABP 2
T2 sequence (P51665 1-324): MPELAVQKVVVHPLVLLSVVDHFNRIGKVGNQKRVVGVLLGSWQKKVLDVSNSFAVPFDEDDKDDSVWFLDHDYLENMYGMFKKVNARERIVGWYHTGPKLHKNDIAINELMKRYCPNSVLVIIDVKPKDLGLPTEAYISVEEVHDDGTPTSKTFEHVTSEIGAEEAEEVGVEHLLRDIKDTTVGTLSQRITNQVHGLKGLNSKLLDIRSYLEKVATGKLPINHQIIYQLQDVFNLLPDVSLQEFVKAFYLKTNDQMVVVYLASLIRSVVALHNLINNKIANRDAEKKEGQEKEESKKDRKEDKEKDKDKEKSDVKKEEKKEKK

[7] = in vitro; conditions: human
[8] = 200 nM, 180 min, replicates A,C

Log2 reporter intensity values (Log2FC, DMSO substract) ([1]; 2 nM, 60 min, replicates A-C): -0.1407 and 0.0289 and 0.1099
Log2 reporter intensity values (Log2FC, DMSO substract) ([1]; 20 nM, 10 min, replicates B,C): 0.1281
Log2 reporter intensity values (Log2FC, DMSO substract) ([1]; 20 nM, 60 min, replicates A-C): 0.06053 and 0.195 and 0.2148
Log2 reporter intensity values (Log2FC, DMSO substract) ([1]; 20 nM, 180 min, replicates A-C): 0.2725 and 0.06742 and 0.2092
Log2 reporter intensity values (Log2FC, DMSO substract) ([1]; 200 nM, 10 min, replicates B,C): 0.2092 and 0.2483
Log2 reporter intensity values (Log2FC, DMSO substract) ([1]; 200 nM, 60 min, replicates A-C): 0.08791 and 0.2394
Log2 reporter intensity values (Log2FC, DMSO substract) [1, 8]: 0.2625 and 0.2347
Log2 reporter intensity values (Log2FC, DMSO substract) ([2]; 2 nM, 60 min, replicates A-C): 0.1769 and 0.1167 and 0.05908
Log2 reporter intensity values (Log2FC, DMSO substract) ([2]; 20 nM, 10 min, replicates B,C): 0.07104
Log2 reporter intensity values (Log2FC, DMSO substract) ([2]; 20 nM, 60 min, replicates A-C): 0.004019
Log2 reporter intensity values (Log2FC, DMSO substract) ([2]; 20 nM, 180 min, replicates A-C): -0.1034 and 0.07381 and 0.1015
Log2 reporter intensity values (Log2FC, DMSO substract) ([2]; 200 nM, 10 min, replicates B,C): 0.1233 and 0.1033
Log2 reporter intensity values (Log2FC, DMSO substract) ([2]; 200 nM, 60 min, replicates A-C): 0.176 and 0.4057 and 0.2275
Log2 reporter intensity values (Log2FC, DMSO substract) [2, 8]: 0.3761 and 0.4198
Log2 reporter intensity values (Log2FC, DMSO substract) ([3]; 2 nM, 60 min, replicates A-C): -0.07206 and -0.06602 and 0.07642
Log2 reporter intensity values (Log2FC, DMSO substract) ([3]; 20 nM, 10 min, replicates B,C): -0.04991 and -0.07182
Log2 reporter intensity values (Log2FC, DMSO substract) ([3]; 20 nM, 60 min, replicates A-C): -0.1096 and -0.2324 and -0.02748
Log2 reporter intensity values (Log2FC, DMSO substract) ([3]; 20 nM, 180 min, replicates A-C): -0.1203 and -0.07618 and -0.1432
Log2 reporter intensity values (Log2FC, DMSO substract) ([3]; 200 nM, 10 min, replicates B,C): -0.09582 and 0.125
Log2 reporter intensity values (Log2FC, DMSO substract) ([3]; 200 nM, 60 min, replicates A-C): 0.01523 and 0.2396 and 0.003556
Log2 reporter intensity values (Log2FC, DMSO substract) [3, 8]: 0.05752 and -0.04833
Log2 reporter intensity values (Log2FC, DMSO substract) ([4]; 2 nM, 60 min, replicates A-C): -0.06588 and -0.04701 and -0.09225
Log2 reporter intensity values (Log2FC, DMSO substract) ([4]; 20 nM, 10 min, replicates B,C): -0.04258 and -0.0756
Log2 reporter intensity values (Log2FC, DMSO substract) ([4]; 20 nM, 60 min, replicates A-C): -0.1603 and -0.1771 and -0.09715
Log2 reporter intensity values (Log2FC, DMSO substract) ([4]; 20 nM, 180 min, replicates A-C): -0.4052 and -0.02523 and -0.1285
Log2 reporter intensity values (Log2FC, DMSO substract) ([4]; 200 nM, 10 min, replicates B,C): -0.213 and -0.1784
Log2 reporter intensity values (Log2FC, DMSO substract) ([4]; 200 nM, 60 min, replicates A-C): 0.0802 and -0.1457 and -0.1731
Log2 reporter intensity values (Log2FC, DMSO substract) [4, 8]: -0.0003694 and 0.003479
Log2 reporter intensity values (Log2FC, DMSO substract) ([5]; 2 nM, 60 min, replicates A-C): 0.01071 and 0.05631 and -0.04364
Log2 reporter intensity values (Log2FC, DMSO substract) ([5]; 20 nM, 10 min, replicates B,C): 0.009394 and 0.07693
Log2 reporter intensity values (Log2FC, DMSO substract) ([5]; 20 nM, 60 min, replicates A-C): 0.05332 and 0.1025
Log2 reporter intensity values (Log2FC, DMSO substract) ([5]; 20 nM, 180 min, replicates A-C): 0.1385 and 0.1351 and 0.05551
Log2 reporter intensity values (Log2FC, DMSO substract) ([5]; 200 nM, 10 min, replicates B,C): 0.1048
Log2 reporter intensity values (Log2FC, DMSO substract) ([5]; 200 nM, 60 min, replicates A-C): 0.05455 and 0.04834 and 0.1109
Log2 reporter intensity values (Log2FC, DMSO substract) [5, 8]: -0.08272 and -0.01544
Log2 reporter intensity values (Log2FC, DMSO substract) ([6]; 2 nM, 60 min, replicates A-C): -0.04989 and -0.02897 and -0.2015
Log2 reporter intensity values (Log2FC, DMSO substract) ([6]; 20 nM, 10 min, replicates B,C): -0.09409 and -0.09867
Log2 reporter intensity values (Log2FC, DMSO substract) ([6]; 20 nM, 60 min, replicates A-C): 0.07866 and 0.1721 and 0.02873
Log2 reporter intensity values (Log2FC, DMSO substract) ([6]; 20 nM, 180 min, replicates A-C): 0.04655 and 0.01609 and -0.03959
Log2 reporter intensity values (Log2FC, DMSO substract) ([6]; 200 nM, 10 min, replicates B,C): 0.1092 and 0.06216
Log2 reporter intensity values (Log2FC, DMSO substract) ([6]; 200 nM, 60 min, replicates A-C): -0.1489 and -0.1748
Log2 reporter intensity values (Log2FC, DMSO substract) [6, 8]: -0.06266 and -0.01801
Structure (SMILES): C#Cc1cnc2[nH]cc(-c3cccc4c3CCN4C(=O)[C@@H]3CCCN3C#N)c2c1 [Compound 2]

Structure (SMILES): CC(=O)O/N=C1\C(=O)N(Cc2cc(Cl)ccc2Cl)c2ccc(Cl)cc21 [LDN-57444, reference compound]
EC50 at 3 days [7]: ~9.2 µM
